# Test results from patent US5440033A, “Indolyl-, pyrrolyl- and pyrazolyl substituted benzazepines” (Schering Corporation, priority 1993, dated 1995).
# Biological target: T1, dopamine D-1 receptor (Rattus norvegicus, UniProt P18901)
# T1 construct: Striatal tissue was excised, pooled, and homogenized; from tissue; host or cells: rat brain striatum (male Sprague-Dawley)
# Assay: Competitive inhibition assay, displacement of 3H-SCH 23390 (D1), rat striatal tissue
# Format: binding, rat (male Sprague-Dawley)
# Details: 3H-SCH 23390 0.3 nM, rat striatum, pH 7.4, 37° C., 15 minutes
# Description: (§1) A methodology for characterization of binding and an interpretation of the data are described by Billard et al., Life Sciences 35, 1885 (1984) in which the binding of the benzazepine (R)-(+)-8-chloro-2,3,4,5-tetrahydro-3-methyl-5-phenyl-1H-3-benzazepin-7-olhemimaleate (SCH 23390) to the dopamine D-1 receptor is characterized.
# (§2) Tritiated SCH 23390 and tritiated spiperone (a potent D-2 ligand) were obtained as described in the Billard et al. reference supra and serially diluted in 0.05M Tris buffer, pH 7.4, as required. A compound of the invention is diluted in 0.05M Tris buffer, pH 7.4, as required.
# (§3) Male Sprague-Dawley rats (200 to 250 g) from Charles River Breeding Laboratories, Mass. were used to obtain brain tissue. The rats were humanely sacrificed and their brains removed and placed on ice. Striatal tissue was excised, pooled, and homogenized (Brinkman Polytron, 10 seconds) in 100 volumes (w/v) of ice cold 50 mM Tris buffer, pH 7.4 (at 25° C.). The homogenate was centrifuged at 20,000×g for 10 minutes. The resultant pellet was rehomogenized in Tris buffer and centrifuged again. The final pellet was resuspended in 50 mM Tris buffer pH 7.4 containing 120 mM NaCl, […], 1 mM CaCl2, and 1 mM MgCl2.
# (§4) Polypropylene incubation tubes received 100 μl of the individual test compounds at various concentrations dissolved or suspended in 0.05M Tris, pH 7.4 containing 4 mg/ml methylcellulose, 100 μl of a solution of ^3 H-SCH 23390 in Tris buffer (final reaction mixture concentration=0.3 nM) or 100 μl of a solution of 3H-spiperone in Tris buffer (final concentration=0.2 nM) and 800 μl of tissue suspension (ca. 3 mg/assay). Tubes were incubated at 37° C. for 15 minutes and rapidly vacuum filtered through Whatman GM/B filters and rinsed 4 times with 4 ml of ice cold 50 mM Tris buffer, pH 7.4. The filters were transferred to scintillation vials, equilibrated with 10 ml of scintillant (Scintosol, Isolab, Inc.) for 16 hours at 25° C. and the radioactivity determined in a liquid scintillation counter. Ki values were determined as described by Billard et al. using the relationship Ki =IC50 /(1+([L]/KD)) wherein IC50 =concentration of test drug necessary to displace 50% of specifically bound ^3 H-Sch 23390, [L]=concentration of radioligand used in the assay, and KD =dissociation constant.
# T1 sequence (P18901 whole entry): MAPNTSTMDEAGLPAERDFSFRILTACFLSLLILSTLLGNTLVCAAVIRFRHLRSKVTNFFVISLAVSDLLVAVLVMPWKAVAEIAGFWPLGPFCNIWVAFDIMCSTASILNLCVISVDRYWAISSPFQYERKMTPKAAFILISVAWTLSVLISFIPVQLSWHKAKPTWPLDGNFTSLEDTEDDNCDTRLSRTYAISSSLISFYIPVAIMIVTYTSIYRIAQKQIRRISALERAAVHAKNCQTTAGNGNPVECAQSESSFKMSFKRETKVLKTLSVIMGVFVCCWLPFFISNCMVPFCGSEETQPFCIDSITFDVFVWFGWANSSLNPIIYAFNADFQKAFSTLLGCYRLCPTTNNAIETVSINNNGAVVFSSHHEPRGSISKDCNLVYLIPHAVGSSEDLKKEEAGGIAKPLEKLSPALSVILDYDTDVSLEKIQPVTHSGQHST
row,SMILES,Ki [nM]
1,CN1CCc2cc(Cl)c(O)cc2C(n2ccc3ccccc32)C1 (centres unmarked) [A],26
2,CN1CCc2cc(Cl)c(O)cc2C(c2ccn(C)c2)C1 (centres unmarked) [H],2.2
3,CN1CCc2cc(Cl)c(O)cc2C(n2cccn2)C1 (centres unmarked) [Compound I],12
4,Cc1cc2c(cc1O)C(n1ccc3ccccc31)CN(C)CC2 (centres unmarked) [B],607
5,CN1CCc2cc(Cl)c(O)cc2C(c2c[nH]c3ccccc23)C1 (centres unmarked) [K],55.2
6,CN1CCc2cc(Cl)c(O)cc2C(c2cccn2C)C1 (centres unmarked) [F],41

# Further lines, results first:
row,Ki [nM],SMILES
1,127,Cc1[nH]c2ccccc2c1C1CN(C)CCc2cc(Cl)c(O)cc21 (centres unmarked) [J]
2,2.8,Cc1cc(C2CN(C)CCc3cc(Cl)c(O)cc32)c(C)n1C (centres unmarked) [G]
3,2.8,Cc1cc(C2CN(C)CCc3cc(Cl)c(O)cc32)c(C)[nH]1 (racemic) [(±)C]
4,0.54,"Cc1cc(C2CN(C)CCc3cc(Cl)c(O)cc32)c(C)[nH]1 (single isomer, unassigned; (+)) [(+)D]"
5,41,"Cc1cc(C2CN(C)CCc3cc(Cl)c(O)cc32)c(C)[nH]1 (single isomer, unassigned; (-)) [(-)E]"

# Biological target: T2, D-2 receptor (Rattus norvegicus, UniProt P61169)
# T2 construct: Striatal tissue was excised, pooled, and homogenized; from tissue; host or cells: rat brain striatum (male Sprague-Dawley)
# Assay: Competitive inhibition assay, displacement of 3H-spiperone (D2), rat striatal tissue
# Format: binding, rat (male Sprague-Dawley)
# Details: 3H-spiperone 0.2 nM, rat striatum, pH 7.4, 37° C., 15 minutes
# Description: as §1, §2, §3, §4
# T2 sequence (P61169 whole entry): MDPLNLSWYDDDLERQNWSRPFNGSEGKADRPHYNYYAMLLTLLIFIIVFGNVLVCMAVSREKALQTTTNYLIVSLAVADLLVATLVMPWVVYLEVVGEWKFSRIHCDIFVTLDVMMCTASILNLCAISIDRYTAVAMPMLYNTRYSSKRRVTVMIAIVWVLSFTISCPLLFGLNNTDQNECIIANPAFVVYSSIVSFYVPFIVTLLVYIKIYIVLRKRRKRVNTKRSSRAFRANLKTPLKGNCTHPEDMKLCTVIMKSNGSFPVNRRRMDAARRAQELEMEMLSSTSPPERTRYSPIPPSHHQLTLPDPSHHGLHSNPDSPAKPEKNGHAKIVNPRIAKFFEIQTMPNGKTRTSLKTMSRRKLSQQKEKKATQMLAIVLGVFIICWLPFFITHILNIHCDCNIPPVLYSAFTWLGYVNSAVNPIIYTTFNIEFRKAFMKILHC
row,SMILES,Ki [nM]
1,CN1CCc2cc(Cl)c(O)cc2C(n2ccc3ccccc32)C1 (centres unmarked) [A],> 10000
2,CN1CCc2cc(Cl)c(O)cc2C(c2ccn(C)c2)C1 (centres unmarked) [H],177
3,CN1CCc2cc(Cl)c(O)cc2C(n2cccn2)C1 (centres unmarked) [Compound I],> 10000
4,CN1CCc2cc(Cl)c(O)cc2C(c2c[nH]c3ccccc23)C1 (centres unmarked) [K],> 10000
5,CN1CCc2cc(Cl)c(O)cc2C(c2cccn2C)C1 (centres unmarked) [F],10000

# Continued, values first:
row,Ki [nM],SMILES
1,> 10000,Cc1[nH]c2ccccc2c1C1CN(C)CCc2cc(Cl)c(O)cc21 (centres unmarked) [J]
2,383,Cc1cc(C2CN(C)CCc3cc(Cl)c(O)cc32)c(C)n1C (centres unmarked) [G]
3,2450,Cc1cc(C2CN(C)CCc3cc(Cl)c(O)cc32)c(C)[nH]1 (racemic) [(±)C]
4,590,"Cc1cc(C2CN(C)CCc3cc(Cl)c(O)cc32)c(C)[nH]1 (single isomer, unassigned; (+)) [(+)D]"
5,613,"Cc1cc(C2CN(C)CCc3cc(Cl)c(O)cc32)c(C)[nH]1 (single isomer, unassigned; (-)) [(-)E]"

# Same assay, conditions: 3H-spiperone 0.2 nM, rat striatum; printed as IC50 in the Ki column
row,IC50 [nM],SMILES
1,> 10000,Cc1cc2c(cc1O)C(n1ccc3ccccc31)CN(C)CC2 (centres unmarked) [B]

# Tested on: not listed separately
# Assay: Conditioned avoidance suppression in rats (CAR)
# Format: in vivo
# Details: rat, 30 po
# Method: N.Y. Acad. Sci. 66, 740 (1957). A series of experiments was carried out to assess the ability of the compounds of this invention to suppress the conditioned avoidance response (CAR) in rats.
# Rats were required to jump onto a platform located 6.75 inches (17.15 cm) above the grid floor of an experimental chamber in response to a 5-second tone to avoid a 10-second foot shock (0.6 ma). Each experimental session consisted of 20 such trials presented at 30-second intervals. A correct CAR is scored whenever the rat jumps onto the platform during the tone (prior to foot shock). An escape response is scored when the rat jumps onto the platform during a shock. A response failure is defined as the lack of an escape response during the 10-second shock period.
# Groups of 6-8 rats were trained in two consecutive days (total of 40 trials). Rats that reached criterion on day 2 (correct CARs on 16 or more of the 20 trials) were treated with either a test drug or vehicle on day 3. Suppression of CAR was analyzed statistically using Student's t-test comparing the performances of drug-treated to vehicle-treated rats.
row,tremors,SMILES
1,tremors at 30 po,"Cc1cc(C2CN(C)CCc3cc(Cl)c(O)cc32)c(C)[nH]1 (single isomer, unassigned; (+)) [(+)D]"

# Same assay, conditions: rat, @ 1 h; lowest dose tested that significantly (P<0.05) reduced avoidance responding; read-out: Rat CAR (minimal effective dose, MED)
row,SMILES,minimal effective dose [mg/kg]
1,Cc1cc(C2CN(C)CCc3cc(Cl)c(O)cc32)c(C)n1C (centres unmarked) [G],10
2,Cc1cc(C2CN(C)CCc3cc(Cl)c(O)cc32)c(C)[nH]1 (racemic) [(±)C],10
3,"Cc1cc(C2CN(C)CCc3cc(Cl)c(O)cc32)c(C)[nH]1 (single isomer, unassigned; (+)) [(+)D]",10

# Same assay, conditions: rat, @ 6 h; read-out: Rat CAR (minimal effective dose, MED)
row,SMILES,minimal effective dose [mg/kg]
1,Cc1cc(C2CN(C)CCc3cc(Cl)c(O)cc32)c(C)[nH]1 (racemic) [(±)C],50

# Tested on: not listed separately
# Assay: Conditioned avoidance response, monkey (parenthesised entries in the Rat CAR column)
# Format: in vivo
# Details: @ 4 h
row,SMILES,"CAR, monkey [mpk]"
1,Cc1cc(C2CN(C)CCc3cc(Cl)c(O)cc32)c(C)n1C (centres unmarked) [G],5

# Same assay, conditions: po @ 6 h
row,SMILES,"CAR, monkey [mpk]"
1,Cc1cc(C2CN(C)CCc3cc(Cl)c(O)cc32)c(C)[nH]1 (racemic) [(±)C],1.5
